Experiments:
Format in all cases: in vivo
[1] = tested on: kochia (Kochia scoparia); test: Test A preemergence, kochia; details: Bassia scoparia, pre-emergence, 240 h, Preemergence, 0 to 100 scale (0 no effect, 100 complete control), read-out: Plant response rating, Kochia; for pest or weed control at 31 g/ha: 31 g ai/ha; for pest or weed control at 125 g/ha: 125 g ai/ha
How it was run: (§1)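 Scores (0 no effect to 100 complete control) come from visual comparison of treated and untreated plants kept about 10 days in a greenhouse. Growth medium was a loam/sand blend; preemergence treatment was a directed soil spray, postemergence treatment went onto plants at the 1–2 leaf stage.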

[2] = tested on: ragweed (common ragweed, Ambrosia elatior); test: Test A preemergence, ragweed; details: Ambrosia artemisiifolia, pre-emergence, 240 h, Preemergence, 0 to 100 scale (0 no effect, 100 complete control), read-out: Plant response rating, Ragweed; for pest or weed control at 31 g/ha: 31 g ai/ha; for pest or weed control at 125 g/ha: 125 g ai/ha
How it was run: as §1

[3] = tested on: ryegrass, Italian (Italian ryegrass, Lolium multiflorum); test: Test A preemergence, Italian ryegrass; details: Lolium multiflorum, pre-emergence, 240 h, Preemergence, 0 to 100 scale (0 no effect, 100 complete control), read-out: Plant response rating, Ryegrass, Italian; for pest or weed control at 31 g/ha: 31 g ai/ha; for pest or weed control at 125 g/ha: 125 g ai/ha
How it was run: as §1

[4] = tested on: foxtail, giant (giant foxtail, Setaria faberii); test: Test A preemergence, giant foxtail; details: Setaria faberi, pre-emergence, 240 h, Preemergence, 0 to 100 scale (0 no effect, 100 complete control), read-out: Plant response rating, Foxtail, Giant; for pest or weed control at 31 g/ha: 31 g ai/ha; for pest or weed control at 125 g/ha: 125 g ai/ha
How it was run: as §1

[5] = tested on: barnyardgrass (Echinochloa crus-galli); test: Test A postemergence, barnyardgrass; details: Echinochloa crus-galli, post-emergence, 240 h, postemergence, 0 to 100 scale, 0 is no effect, 100 is complete control, approximately 10 days, read-out: Plant response rating, Barnyardgrass; for pest or weed control at 31 g/ha: 31 g ai/ha; for pest or weed control at 125 g/ha: 125 g ai/ha
How it was run: as §1

[6] = tested on: kochia (Kochia scoparia); test: Test A postemergence, kochia; details: Bassia scoparia, post-emergence, 240 h, postemergence, 0 to 100 scale, 0 is no effect, 100 is complete control, approximately 10 days, read-out: Plant response rating, Kochia; for pest or weed control at 31 g/ha: 31 g ai/ha; for pest or weed control at 125 g/ha: 125 g ai/ha
How it was run: as §1

[7] = tested on: ragweed (common ragweed, Ambrosia elatior); test: Test A postemergence, ragweed; details: Ambrosia artemisiifolia, post-emergence, 240 h, postemergence, 0 to 100 scale, 0 is no effect, 100 is complete control, approximately 10 days, read-out: Plant response rating, Ragweed; for pest or weed control at 31 g/ha: 31 g ai/ha; for pest or weed control at 125 g/ha: 125 g ai/ha
How it was run: as §1

[8] = tested on: foxtail, giant (giant foxtail, Setaria faberii); test: Test A postemergence, giant foxtail; details: Setaria faberi, post-emergence, 240 h, postemergence, 0 to 100 scale, 0 is no effect, 100 is complete control, approximately 10 days, read-out: Plant response rating, Foxtail, Giant; for pest or weed control at 31 g/ha: 31 g ai/ha; for pest or weed control at 125 g/ha: 125 g ai/ha
How it was run: as §1

[9] = tested on: wheat (Triticum aestivum); test: Test A postemergence, wheat; details: Triticum aestivum, post-emergence, 240 h, postemergence, 0 to 100 scale, 0 is no effect, 100 is complete control, approximately 10 days, read-out: Plant response rating, Wheat; for plant injury at 31 g/ha: 31 g ai/ha; for plant injury at 125 g/ha: 125 g ai/ha
How it was run: as §1

[10] = tested on: corn (Zea mays); test: Test A postemergence, corn; details: Zea mays, post-emergence, 240 h, postemergence, 0 to 100 scale, 0 is no effect, 100 is complete control, approximately 10 days; for Corn plant response rating (crop injury, 0 = no effect, 100 = complete kill) at 31 g/ha: 31 g ai/ha; for Corn plant response rating (crop injury, 0 = no effect, 100 = complete kill) at 125 g/ha: 125 g ai/ha
How it was run: as §1

[11] = tested on: blackgrass (Alopecurus myosuroides); test: Test A postemergence, blackgrass; details: Alopecurus myosuroides, post-emergence, 240 h, postemergence, 0 to 100 scale, 0 is no effect, 100 is complete control, approximately 10 days, read-out: Plant response rating, Blackgrass; for pest or weed control at 31 g/ha: 31 g ai/ha; for pest or weed control at 125 g/ha: 125 g ai/ha
How it was run: as §1

[12] = tested on: galium (catchweed bedstraw, Galium aparine); test: Test A postemergence, galium; details: Galium, post-emergence, 240 h, postemergence, 0 to 100 scale, 0 is no effect, 100 is complete control, approximately 10 days, read-out: Plant response rating, Galium; for pest or weed control at 31 g/ha: 31 g ai/ha; for pest or weed control at 125 g/ha: 125 g ai/ha
How it was run: as §1

[13] = tested on: rice (Oryza sativa); test: Test B flooded paddy test, rice; details: Oryza sativa; 250 g ai/ha, Flood; visual rating after 13 to 15 days; scale 0 to 100, 0 is no effect, 100 is complete control; read-out: Plant response rating, Rice
How it was run: (§2)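 Plants grown to 2-leaf stage, pots flooded to 3 cm above soil and compound applied directly to paddy water, depth maintained throughout. After 13-15 days in greenhouse, visual rating against untreated controls on 0-100 scale (0 no effect, 100 complete control).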

[14] = tested on: sedge, umbrella (small-flower umbrella sedge, Cyperus difformis); test: Test B flooded paddy test, umbrella sedge; details: Cyperus difformis; 250 g ai/ha, Flood; visual rating after 13 to 15 days; scale 0 to 100, 0 is no effect, 100 is complete control; read-out: Plant response rating, Sedge, Umbrella
How it was run: as §2

[15] = tested on: barnyardgrass (Echinochloa crus-galli); test: Test B flooded paddy test, barnyardgrass; details: Echinochloa crus-galli; 250 g ai/ha, Flood; visual rating after 13 to 15 days; scale 0 to 100, 0 is no effect, 100 is complete control; read-out: Plant response rating, Barnyardgrass
How it was run: as §2

Cc1cccc(Oc2ncc(Cl)cn2)c1OCC(F)(F)F [Compound 63]
0%: pest or weed control at 31 g/ha [1] | pest or weed control at 125 g/ha [1] | pest or weed control at 31 g/ha [2] | pest or weed control at 125 g/ha [2] | pest or weed control at 31 g/ha [3] | pest or weed control at 125 g/ha [3] | pest or weed control at 31 g/ha [4] | pest or weed control at 125 g/ha [4] | pest or weed control at 31 g/ha [5] | pest or weed control at 125 g/ha [5] | pest or weed control at 31 g/ha [6] | pest or weed control at 125 g/ha [6] | pest or weed control at 31 g/ha [7] | pest or weed control at 125 g/ha [7] | pest or weed control at 31 g/ha [8] | pest or weed control at 125 g/ha [8] | plant injury at 31 g/ha [9] | plant injury at 125 g/ha [9] | Corn plant response rating (crop injury, 0 = no effect, 100 = complete kill) at 31 g/ha [10] | Corn plant response rating (crop injury, 0 = no effect, 100 = complete kill) at 125 g/ha [10] | pest or weed control at 31 g/ha [11] | pest or weed control at 125 g/ha [11] | pest or weed control at 31 g/ha [12] | pest or weed control at 125 g/ha [12] | plant injury at 250 g/ha [13] | pest or weed control at 250 g/ha [15]
90%: pest or weed control at 250 g/ha [14]

N#Cc1cccc(Oc2ncc(F)cn2)c1OCC(F)(F)F [Compound 41]
20%: pest or weed control at 125 g/ha [2] | pest or weed control at 31 g/ha [4] | pest or weed control at 125 g/ha [12]
50%: pest or weed control at 31 g/ha [1]
0%: pest or weed control at 31 g/ha [2] | pest or weed control at 31 g/ha [3] | pest or weed control at 31 g/ha [5] | pest or weed control at 125 g/ha [5] | pest or weed control at 31 g/ha [8] | pest or weed control at 125 g/ha [8] | plant injury at 31 g/ha [9] | plant injury at 125 g/ha [9] | Corn plant response rating (crop injury, 0 = no effect, 100 = complete kill) at 31 g/ha [10] | pest or weed control at 31 g/ha [11]
80%: pest or weed control at 125 g/ha [4]
60%: pest or weed control at 125 g/ha [6]
100%: pest or weed control at 125 g/ha [1]
10%: pest or weed control at 125 g/ha [3] | pest or weed control at 31 g/ha [7] | pest or weed control at 125 g/ha [7] | Corn plant response rating (crop injury, 0 = no effect, 100 = complete kill) at 125 g/ha [10] | pest or weed control at 125 g/ha [11] | pest or weed control at 31 g/ha [12]
30%: pest or weed control at 31 g/ha [6]

N#Cc1cccc(Oc2ncc(Cl)cn2)c1OCC(F)(F)F [Compound 1]
20%: pest or weed control at 125 g/ha [8] | pest or weed control at 125 g/ha [11]
10%: pest or weed control at 125 g/ha [3] | pest or weed control at 31 g/ha [7] | pest or weed control at 125 g/ha [7] | pest or weed control at 31 g/ha [8] | Corn plant response rating (crop injury, 0 = no effect, 100 = complete kill) at 31 g/ha [10] | Corn plant response rating (crop injury, 0 = no effect, 100 = complete kill) at 125 g/ha [10] | pest or weed control at 31 g/ha [12]
60%: pest or weed control at 31 g/ha [1] | pest or weed control at 31 g/ha [4] | pest or weed control at 31 g/ha [6]
0%: pest or weed control at 31 g/ha [2] | pest or weed control at 31 g/ha [3] | pest or weed control at 31 g/ha [5] | plant injury at 31 g/ha [9] | plant injury at 125 g/ha [9] | pest or weed control at 31 g/ha [11]
40%: pest or weed control at 125 g/ha [12]
100%: pest or weed control at 125 g/ha [1] | pest or weed control at 125 g/ha [2] | pest or weed control at 125 g/ha [4]
80%: pest or weed control at 125 g/ha [6]
30%: pest or weed control at 125 g/ha [5]

From patent publication US10485235B2, “Aryloxypyrimidinyl ethers as herbicides” (FMC Corporation, priority 2015, dated 2019)
